Where a name gives a salt, the structure may show the parent alone.
target: T1, α2B receptor (Homo sapiens, UniProt P18089); assay: Competition binding, [3H]rauwolscine, human α2B receptor; settings: [3H]rauwolscine, LM(tk-) cell line L-NGC-α2B; SEM and n in lines below; read-out: pKi alpha-2 2b (converted)
T1 construct: host or cells: LM(tk-) cells, line L-NGC-α2B
T1 sequence (P18089 1-450): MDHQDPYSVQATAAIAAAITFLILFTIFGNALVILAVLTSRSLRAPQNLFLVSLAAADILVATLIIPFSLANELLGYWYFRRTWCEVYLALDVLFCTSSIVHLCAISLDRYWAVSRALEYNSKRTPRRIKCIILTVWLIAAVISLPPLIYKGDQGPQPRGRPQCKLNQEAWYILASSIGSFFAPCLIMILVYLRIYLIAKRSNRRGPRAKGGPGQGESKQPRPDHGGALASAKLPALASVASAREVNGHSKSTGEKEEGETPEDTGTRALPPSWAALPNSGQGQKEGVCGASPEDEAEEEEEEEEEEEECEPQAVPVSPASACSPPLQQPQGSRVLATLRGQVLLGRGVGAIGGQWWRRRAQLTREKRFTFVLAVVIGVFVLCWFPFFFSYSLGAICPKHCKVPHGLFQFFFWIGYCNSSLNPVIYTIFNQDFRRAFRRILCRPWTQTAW
Procedure, shortened: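 Cell lysates from stably transfected LM(tk−) lines are resuspended in 25 mM glycylglycine (pH 7.6 at room temperature), incubated to equilibrium with 0.5 nM [3H]rauwolscine plus competitor, then filtered through GF/B filters; 10 μM phentolamine defines nonspecific binding.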

COC(=O)C1=C(C)NC(C)=C(C(=O)NCCCN2CCC(c3ccccc3)(c3ccccc3)CC2)C1c1ccc([N+](=O)[O-])c(C)c1 (stereo not shown) [Example 28] showed a Ki of 1660 nM.

same assay, conditions: [3H]rauwolscine, human α2B receptor, LM(tk−) cells; read-out: pKi alpha-2 2b (converted)

Going from CC1=C(C(=O)NCCCN2CCC(c3ccccc3)(c3ccccc3)CC2)C(c2ccc([N+](=O)[O-])cc2)C(C(=O)OCCC#N)=C(C)N1 (stereo not shown) [Example 160] to CCC1=C(C(=O)OCCC#N)C(c2ccc([N+](=O)[O-])cc2)C(C(=O)NCCCN2CCC(c3ccccc3)(c3ccccc3)CC2)=C(COC)N1 (stereo not shown) [Example 135], the Ki rises from 148 nM to 389 nM (2.6-fold).

CCC1=C(C(N)=O)C(c2ccc([N+](=O)[O-])cc2)C(C(=O)NCCCN2CCN(c3ccccc3OC)CC2)=C(CC)N1 (stereo not shown) [Example 125, 5-Carboxamido-2,6-diethyl-1,4-dihydro-3-(N-{3-[4-(2-methoxyphenyl)piperazin-1-yl]propyl})carboxamido-4-(4-nitrophenyl)pyridine] showed a Ki of 186 nM.

same assay, conditions: pKi alpha-2 2b

Compared with COC(=O)C1=C(C)NC(C)=C(C(=O)NCCN2CCC(c3ccccc3)(c3ccccc3)CC2)C1c1ccc([N+](=O)[O-])cc1 (stereo not shown) [Example 52, 1,4-Dihydro-3-methoxycarbonyl-2,6-dimethyl-4-(4-nitrophenyl)-5-{N-[2-(4,4-diphenylpiperidin-1-yl)ethyl]}carboxamidopyridine hydrochloride hemihydrate], COC(=O)C1=C(C)NC(C)=C(C(=O)N(C)CCCN2CCC(c3ccccc3)(c3ccccc3)CC2)C1c1ccc([N+](=O)[O-])cc1 (stereo not shown) [Example 46, hydrochloride hemihydrate] is 1.6-fold lower in Ki: 794 nM for the first, 490 nM for the second. The second binds more tightly here.

Going from COC(=O)C1=C(C)NC(C)=C(C(=O)NCCCN2CCC(c3ccccc3)(c3ccccc3)CC2)C1c1ccc(C)cc1 (stereo not shown) [Example 19, 1,4-Dihydro-3-methoxycarbonyl-1,6-dimethyl-4-(4-methylphenyl)-5-(N-(3-(4,4-diphenylpiperidin-1-yl)propyl)carboxamido)pyridine] to CCC1=C(C(=O)NCCCN2CCC(c3ccccc3)(c3ccccc3)CC2)C(c2ccc(N)cc2)C(C(=O)OC)=C(C)N1 (stereo not shown) [Example 114, 4-(4-Aminophenyl)-2-ethyl-1,4-dihydro-5-methoxycarbonyl-6-methyl-3-(N-(3-(4,4-diphenylpiperidin-1-yl)propyl)carboxamido)-pyridine], the Ki falls from 912 nM to 468 nM (1.9-fold).

Going from COC(=O)C1=C(C)N(C)C(C)=C(C(=O)OCCCN2CCC(c3ccccc3)(c3ccccc3)CC2)C1c1ccc([N+](=O)[O-])cc1 (stereo not shown) [Example 92, 1,4-Dihydro-5-methoxycarbonyl-1,2,6-trimethyl-4-(4-nitrophenyl)-3-[3-(4,4-diphenylpiperidin-1-yl)propoxy]carbonylpyridine hydrochloride hydrate] to CCOC(=O)C1=C(CC(=O)NCCCN2CCC(c3ccccc3)(c3ccccc3)CC2)NC(C)=C(C(=O)OC)C1c1ccc([N+](=O)[O-])cc1 (stereo not shown) [Example 89, 3-Ethoxycarbonyl-1,4-dihydro-5-methoxycarbonyl-6-methyl-4-(4-nitro)phenyl-2-(N-(3-(4,4,-diphenylpiperidin-1-yl)propyl)carboxamido)methylpyridine, fumarate salt], the Ki rises from 724 nM to 1950 nM (2.7-fold). The first binds more tightly here.

Going from COC(=O)C1=C(C)NC(c2ccccc2)=C(C(=O)NCCCN2CCC(c3ccccc3)(c3ccccc3)CC2)C1c1ccc([N+](=O)[O-])cc1 (stereo not shown) [Example 78, 1,4-Dihydro-5-methoxycarbonyl-6-methyl-4-(4-nitro)phenyl-2-phenyl-3-(N-(3-(4,4-diphenylpiperidin-1-yl)propyl))carboxamidopyridine hydrochloride hydrate] to COC(=O)C1=C(C)NC(C)=C(C(=O)NCCCN2CCC(c3ccccc3)(c3ccccc3)CC2)C1c1ccc2ccccc2c1 (stereo not shown) [Example 22], the Ki rises from 550 nM to 912 nM (1.7-fold). The first binds more tightly here.

Compared with CCC1=C(C(N)=O)C(c2ccc([N+](=O)[O-])cc2)C(C(=O)NCCCN2CCC(c3ccc(OC)cc3)(c3ccc(OC)cc3)CC2)=C(CC)N1 (stereo not shown) [Example 103, 5-Carboxamido-2,6-diethyl-1,4-dihydro-3-{N-[3-(4,4-bis-(4-methoxyphenyl)piperidin-1-yl)propyl]}carboxamido}-4-(4-nitrophenyl)pyridine hydrochloride], CCC1=C(C(N)=O)C(c2ccc([N+](=O)[O-])cc2)C(C(=O)NCCCN2CCC3(CC2)C(=O)NCN3c2ccccc2)=C(CC)N1 (stereo not shown) [Example 105, 5-Carboxamido-2,6-diethyl-1,4-dihydro-4-(4-nitrophenyl)-3-{N-[3-(1-phenyl-4-oxo-1,3,8-triazaspiro[4.3]decan-8-yl)propyl]}carboxamidopyridine hydrochloride hydrate] is 3-fold higher in Ki: 741 nM for the first, 2190 nM for the second.

Compound CC1=C(C#N)C(c2ccc([N+](=O)[O-])cc2)C(C(=O)NCCCN2CCC(c3ccccc3)(c3ccccc3)CC2)=C(C)N1 (stereo not shown) [Example 37] has a Ki of 1070 nM.

same assay, conditions: pKi alpha-2 2b, [3H]rauwolscine, LM(tk-) cell line L-NGC-α2B; SEM and n in lines below

Going from CC1=C(C(=O)NCCCN2CCC(c3ccccc3)(c3ccccc3)CC2)C(c2ccc([N+](=O)[O-])cc2)C2=C(CCCC2=O)N1 (stereo not shown) [Example 40, 1,4,5,6,7,8-Hexahydro-2-methyl-4-(4-nitrophenyl)-5-oxo-3-{N-[3-(4,4-diphenylpiperidin-1-yl)propyl]}carboxamidoquinoline] to CC1=C(C(N)=O)C(c2ccc([N+](=O)[O-])cc2)C(C(=O)NCCN2CCC(c3ccccc3)(c3ccccc3)CC2)=C(C)N1 (stereo not shown) [Example 54, 5-Carboxamide-1,4-dihydro-2,6-dimethyl-4-(4-nitrophenyl)-3-{N-[2-(4,4-diphenylpiperidin-1-yl)ethyl]}carboxamidopyridine hydrochloride hydrate], the Ki falls from 1780 nM to 302 nM (5.9-fold). The second binds more tightly here.

Going from CCC1=C(C(=O)NCCCN2CCC(c3ccccc3)(c3ccccc3)CC2)C(c2ccc([N+](=O)[O-])cc2)C(C(=O)OCc2ccccc2)=C(C)N1 (stereo not shown) [Example 4, 5-Benzyloxycarbonyl-2-ethyl-1,4-dihydro-6-methyl-4-(4-nitrophenyl)-3-(N-(3-(4,4-diphenylpiperidin-1-yl)propyl)carboxamido) pyridine, Hydrochloride Salt, Hydrate] to COC(=O)C1=C(C)NC(c2ccoc2)=C(C(=O)NCCCN2CCC(c3ccccc3)(c3ccccc3)CC2)C1c1ccc([N+](=O)[O-])cc1 (stereo not shown) [Example 43, 2-(Furan-3-yl)-, 4-dihydro-5-methoxycarbonyl-6-methyl-4-(4-nitrophenyl)-3-(N-(3-(4,4-diphenylpiperidin-1-yl)propyl)carboxamidopyridine, hydrochloride salt], the Ki falls from 1020 nM to 437 nM (2.3-fold). The second binds more tightly here.

same assay, conditions: pKi alpha-2 2b, [3H]rauwolscine, human α2B receptor, LM(tk−) cells

Compared with COc1ccc(C2(c3ccccc3)CCN(CCCNC(=O)C3=C(C)NC(C)=C(C(N)=O)C3c3ccc([N+](=O)[O-])cc3)CC2)cc1 (stereo not shown) [Example 98, 5-Carboxamido-1,4-dihydro-3-{N-[3-(4-(4-methoxyphenyl)-4-phenylpiperidin-1-yl)propyl]}carboxamido-2,6-dimethyl-4-(4-nitrophenyl)pyridine hydrochloride], CCC1=C(C(N)=O)C(c2ccc([N+](=O)[O-])cc2)C(C(=O)NCCCN2CCC(C)(c3ccccc3)CC2)=C(CC)N1 (stereo not shown) [Example 106, 5-Carboxamido-2,6-diethyl-1,4-dihydro-3-{N-[3-(4-Methyl-4-phenylpiperidin-1-yl)propyl]}carboxamido-4-(4-nitrophenyl)pyridine hydrochloride hydrate] is 1.6-fold lower in Ki: 589 nM for the first, 372 nM for the second.

First: CCC1=C(C(N)=O)C(c2ccc([N+](=O)[O-])cc2)C(C(=O)NCCCN2CCC(C#N)(c3ccccc3)CC2)=C(CC)N1 (racemic) [(±)-102, 5-Carboxamido-3-{N-[(4-cyano-4-phenylpiperidin-1-ly)propyl]carboxamido-2,6-diethyl-1,4-dihydro-4-(4-nitrophenyl)pyridine hydrochloride hydrate]
Second: CCC1=C(C(N)=O)C(c2ccc([N+](=O)[O-])cc2)C(C(=O)NCCCN2CCC(O)(c3ccccc3)CC2)=C(CC)N1 (stereo not shown) [Example 100, 5-Carboxamido-2,6-diethyl-1,4-dihydro-3-{N-(3-(4-hydroxy-4-phenylpiperidin-1-yl)propyl]}carboxamido-4-(4-nitrophenyl)pyridine hydrochloride hydrate]
The Ki of the first is 2.8-fold lower: 1020 nM for the first, 2880 nM for the second. The first binds more tightly here.

CCC1=C(C(N)=O)C(c2ccc(S(C)(=O)=O)cc2)C(C(=O)NCCCN2CCC(c3ccccc3)(c3ccccc3)CC2)=C(CC)N1 (stereo not shown) [Example 116, 5-Carboxamido-2,6-diethyl-1,4-dihydro-4-(4-methanesulfonylphenyl)-3-(N-(3-(4,4-diphenylpiperidin-1-yl)propyl)carboxamido)-pyridine] and CCC1=C(C(=O)NCCCN2CCC(c3ccccc3)(c3ccccc3)CC2)C(c2ccc([N+](=O)[O-])cc2)C(C(=O)NC)=C(COCCN=[N+]=[N-])N1 (stereo not shown) [Example 151, 2-((2-Azidoethyl)oxy)methyl-6-ethyl-1,4-dihydro-3-(N-methyl)carboxamido-4-(4-nitro)phenyl-5-(N-(3-(4,4-diphenylpiperidin-1-yl)propyl))carboxamidopyridine] are within 1.5-fold of each other in Ki: 372 nM for the first, 537 nM for the second.

For CCC1=C(C(N)=O)C(c2ccc([N+](=O)[O-])cc2)C(C(=O)NCCCN2CCC(C#N)(c3ccccc3)CC2)=C(CC)N1 (single isomer, unassigned; (-)) [(−)-102], the Ki was 589 nM.

system: not given; assay: not given; settings: not given

First: CC1=C(C(=O)NCCCN2CCC(c3ccccc3)(c3ccccc3)CC2)C(c2ccc([N+](=O)[O-])cc2)C2=C(CCCC2=O)N1 (stereo not shown) [Example 40, 1,4,5,6,7,8-Hexahydro-2-methyl-4-(4-nitrophenyl)-5-oxo-3-{N-[3-(4,4-diphenylpiperidin-1-yl)propyl]}carboxamidoquinoline]
Second: COC(=O)C1=C(C)NC(C)=C(C(=O)NCCCN2CCC(c3ccccc3)(c3ccccc3)CC2)C1c1ccc(C)cc1 (stereo not shown) [Example 19, 1,4-Dihydro-3-methoxycarbonyl-1,6-dimethyl-4-(4-methylphenyl)-5-(N-(3-(4,4-diphenylpiperidin-1-yl)propyl)carboxamido)pyridine]
The melting point of the first is lower: 143 to 146 °C for the first, 234 to 235 °C for the second.
